According to patent US7989422B2, “Antibacterial agents” (Alchemia Limited, priority 2005, dated 2011):

What was measured:
Type in all cases: cell-based
[1] = test system: Staphylococcus aureus ATCC 25923; experiment: MIC against S. aureus, microbroth dilution in MH broth, without or with 5% horse serum; details: MIC class; S. aureus ATCC 25923
Protocol: (§1) Testing was conducted to determine the in vitro antimicrobial activity of a series of compounds synthesised by Alchemia Pty Ltd. The antimicrobial activity of each compound was determined at a single concentration (128 μg/mL) in Mueller Hinton (MH) broth against the ATCC type strain of Staphylococcus aureus. […] Compounds showing activity at concentrations up to 32-64 μg/mL in the presence/absence of serum were then tested for MIC activity against a standard set of 5 microorganisms comprising of ATCC type strains of MRSA, Enterococcus faecalis, Enterococcus faecium, VRE and Escherichia coli. CLSI (formerly NCCLS) microbroth dilution technique was used.
(§2) Each compound is initially dissolved in 100 μL of DMSO. Each solution is then diluted further in 0.9 mL of sterile MH broth to give a total volume of 1 mL (1000 μg/mL) This stock solution is then further diluted in MH broth to give a test solution with final concentration of 128 μg/mL using the following formula: 0.5 ml stock in 3.4 ml MH broth
(§3) Each test organism was subcultured from the −70° C. deep freezer onto horse blood agar. The plates were streaked to obtain isolated colonies and incubated at 35° C. in non-CO2 incubator for 24 hours. A second subculture was carried out onto horse blood agar. For each test organism, 1-2 colonies were selected from an 18-24 hour culture and inoculated into 2 ml sterile MH broth. The turbidity was adjusted to 0.5 McFarland standard.
(§4) A 1:10 dilution in MH broth (200 μL in 2 ml MH) of the 0.5 McFarland control was prepared. 5 μL of this diluted solution was used to inoculate the trays.
100 μL of sterile MH broth was added in columns 2-12. 200 μL of test solution was added in column 1. 100 μL was transferred in column 2 giving a ½ dilution. 100 μL from column 2 was then transferred to column 3 (¼ dilution). This dilution was carried on until column 12. A second tray containing the same test solution was inoculated in a similar manner using sterile MH broth with 5% heat inactivated horse serum. 5 μL of organism solution was then added to each well. The plates were then sealed and incubated at 35° C. in a non-CO2 incubator for 18-24 hours. The plates were examined for growth after the incubation time.
(§5) If the test organism is sensitive to the compound in the broth the growth will be inhibited. Similarly, if the organism grows on the antibiotic containing medium then it is resistant to this particular antibiotic.

[2] = test system: Staphylococcus aureus (MRSA) ATCC 33591; experiment: MIC against MRSA, microbroth dilution; details: MIC class
Protocol: as §1, §2, §3, §4
(§6) The trays were prepared in a similar way as mentioned above and incubated at 35° C. in a non-CO2 incubator for 18-24 hours. The plates were examined for growth after the incubation time.
(§7) After 18-24 hour incubation 5 μL from each well was then inoculated onto horse blood agar and incubated for 18-24 hours at 35° C. in a non-CO2 incubator.
as §5

[3] = test system: Enterococcus faecalis ATCC 29212; experiment: MIC against E. faecalis, microbroth dilution; details: MIC class
Protocol: as §1, §2, §3, §4, §6, §7, §5

E. Faecium 51299 VanB = experiment: MIC against vancomycin-resistant enterococcus 51299 (VanB), microbroth dilution; details: MIC class; ATCC 51299 VanB
Protocol: as §1, §2, §3, §4, §6, §7, §5

[4] = test system: Enterococcus faecium ATCC 35667; experiment: MIC against E. faecium, microbroth dilution; details: MIC class
Protocol: as §1, §2, §3, §4, §6, §7, §5

Compound	S. Aureus 25923 activity [1]	S. Aureus 33591 MRSA activity [2]	E. Fecalis 29212 activity [3]	E. Faecium 51299 VanB activity (E. Faecium 51299 VanB)	E. Faecium 35667 activity [4]
Nc1nc2cc(C(F)(F)F)cc(Cl)c2n1C1COC(CO)C(NC(=O)c2ccc(-c3ccccc3)cc2)C1O (centres unmarked) [Compound 155]	+ (“+”: MIC (μg/mL): 64 ≧ MIC > 16)	+ (“+”: MIC (μg/mL): 64 ≧ MIC > 16)	− (“−”: MIC (μg/mL): MIC > 64)	− (“−”: MIC (μg/mL): MIC > 64)	− (“−”: MIC (μg/mL): MIC > 64)
O=C(NC1C(CO)OCC(n2cnc3cc(C(F)(F)F)cc(Cl)c32)C1O)c1ccc(-c2ccccc2)cc1 (centres unmarked) [Compound 156]	+ (“+”: MIC (μg/mL): 64 ≧ MIC > 16)	− (“−”: MIC (μg/mL): MIC > 64)	− (“−”: MIC (μg/mL): MIC > 64)	− (“−”: MIC (μg/mL): MIC > 64)	+ (“+”: MIC (μg/mL): 64 ≧ MIC > 16)
NC(Cc1ccc(-c2ccccc2)cc1)C(=O)NC1C(CO)OCC(n2c(O)nc3cc(C(F)(F)F)cc(Cl)c32)C1O (centres unmarked) [Compound 161]	+ (“+”: MIC (μg/mL): 64 ≧ MIC > 16)	+ (“+”: MIC (μg/mL): 64 ≧ MIC > 16)	+ (“+”: MIC (μg/mL): 64 ≧ MIC > 16)	− (“−”: MIC (μg/mL): MIC > 64)	− (“−”: MIC (μg/mL): MIC > 64)
Nc1nc2cc(C(F)(F)F)cc(Cl)c2n1C1COC(CO)C(NC(=O)C(N)Cc2ccc(-c3ccccc3)cc2)C1O (centres unmarked) [Compound 163]	+ (“+”: MIC (μg/mL): 64 ≧ MIC > 16)	+ (“+”: MIC (μg/mL): 64 ≧ MIC > 16)	+ (“+”: MIC (μg/mL): 64 ≧ MIC > 16)	− (“−”: MIC (μg/mL): MIC > 64)	− (“−”: MIC (μg/mL): MIC > 64)
CCCCCC(C)CCC(=O)NC1C(CO)OCC(n2c(O)nc3cc(C(F)(F)F)cc(Cl)c32)C1O (centres unmarked) [Compound 177]	+ (“+”: MIC (μg/mL): 64 ≧ MIC > 16)	+ (“+”: MIC (μg/mL): 64 ≧ MIC > 16)	− (“−”: MIC (μg/mL): MIC > 64)	− (“−”: MIC (μg/mL): MIC > 64)	+ (“+”: MIC (μg/mL): 64 ≧ MIC > 16)
CCCCCC(C)CCC(=O)NC1C(CO)OCC(n2c(S)nc3cc(C(F)(F)F)cc(Cl)c32)C1O (centres unmarked) [Compound 178]	+ (“+”: MIC (μg/mL): 64 ≧ MIC > 16)	− (“−”: MIC (μg/mL): MIC > 64)	− (“−”: MIC (μg/mL): MIC > 64)	− (“−”: MIC (μg/mL): MIC > 64)	− (“−”: MIC (μg/mL): MIC > 64)
CCCCCC(C)CCC(=O)NC1C(CO)OCC(n2c(N)nc3cc(C(F)(F)F)cc(Cl)c32)C1O (centres unmarked) [Compound 179]	+ (“+”: MIC (μg/mL): 64 ≧ MIC > 16)	− (“−”: MIC (μg/mL): MIC > 64)	− (“−”: MIC (μg/mL): MIC > 64)	− (“−”: MIC (μg/mL): MIC > 64)	− (“−”: MIC (μg/mL): MIC > 64)
CCCCCCCCCCCCC(N)C(=O)NC1C(CO)OCC(n2c(O)nc3cc(C(F)(F)F)ccc32)C1O (centres unmarked) [Compound 181]	+ (“+”: MIC (μg/mL): 64 ≧ MIC > 16)	++ (“++”: MIC (μg/mL): MIC ≦ 16)	+ (“+”: MIC (μg/mL): 64 ≧ MIC > 16)	+ (“+”: MIC (μg/mL): 64 ≧ MIC > 16)	+ (“+”: MIC (μg/mL): 64 ≧ MIC > 16)
CCCCCCCCCCCCC(N)C(=O)NC1C(CO)OCC(n2c(S)nc3cc(C(F)(F)F)ccc32)C1O (centres unmarked) [Compound 182]	++ (“++”: MIC (μg/mL): MIC ≦ 16)	++ (“++”: MIC (μg/mL): MIC ≦ 16)	++ (“++”: MIC (μg/mL): MIC ≦ 16)	++ (“++”: MIC (μg/mL): MIC ≦ 16)	++ (“++”: MIC (μg/mL): MIC ≦ 16)
CCCCCCCCCCCCC(N)C(=O)NC1C(CO)OCC(n2c(N)nc3cc(C(F)(F)F)ccc32)C1O (centres unmarked) [Compound 183]	+ (“+”: MIC (μg/mL): 64 ≧ MIC > 16)	− (“−”: MIC (μg/mL): MIC > 64)	− (“−”: MIC (μg/mL): MIC > 64)	− (“−”: MIC (μg/mL): MIC > 64)	++ (“++”: MIC (μg/mL): MIC ≦ 16)
CCCCCCCCCCCCC(N)C(=O)NC1C(CO)OCC(n2c(O)nc3cc(C(F)(F)F)cc(Cl)c32)C1O (centres unmarked) [Compound 185]	+ (“+”: MIC (μg/mL): 64 ≧ MIC > 16)	++ (“++”: MIC (μg/mL): MIC ≦ 16)	++ (“++”: MIC (μg/mL): MIC ≦ 16)	+ (“+”: MIC (μg/mL): 64 ≧ MIC > 16)	++ (“++”: MIC (μg/mL): MIC ≦ 16)
CCCCCCCCCCCCC(N)C(=O)NC1C(CO)OCC(n2c(S)nc3cc(C(F)(F)F)cc(Cl)c32)C1O (centres unmarked) [Compound 186]	++ (“++”: MIC (μg/mL): MIC ≦ 16)	+ (“+”: MIC (μg/mL): 64 ≧ MIC > 16)	+ (“+”: MIC (μg/mL): 64 ≧ MIC > 16)	− (“−”: MIC (μg/mL): MIC > 64)	− (“−”: MIC (μg/mL): MIC > 64)
CCCCCCCCCCCCC(N)C(=O)NC1C(CO)OCC(n2c(N)nc3cc(C(F)(F)F)cc(Cl)c32)C1O (centres unmarked) [Compound 187]	++ (“++”: MIC (μg/mL): MIC ≦ 16)	++ (“++”: MIC (μg/mL): MIC ≦ 16)	++ (“++”: MIC (μg/mL): MIC ≦ 16)	++ (“++”: MIC (μg/mL): MIC ≦ 16)	+ (“+”: MIC (μg/mL): 64 ≧ MIC > 16)
CCCCCCCCCCCCC(N)C(=O)NC1C(CO)OCC(n2cnc3cc(C(F)(F)F)cc(Cl)c32)C1O (centres unmarked) [Compound 188]	+ (“+”: MIC (μg/mL): 64 ≧ MIC > 16)	+ (“+”: MIC (μg/mL): 64 ≧ MIC > 16)	+ (“+”: MIC (μg/mL): 64 ≧ MIC > 16)	+ (“+”: MIC (μg/mL): 64 ≧ MIC > 16)	− (“−”: MIC (μg/mL): MIC > 64)
CCCCCCCCCCCCC(N)C(=O)NC1C(CO)OCC(Nc2ccc(C(F)(F)F)cc2[N+](=O)[O-])C1O (centres unmarked) [Compound 197]	++ (“++”: MIC (μg/mL): MIC ≦ 16)	+ (“+”: MIC (μg/mL): 64 ≧ MIC > 16)	+ (“+”: MIC (μg/mL): 64 ≧ MIC > 16)	+ (“+”: MIC (μg/mL): 64 ≧ MIC > 16)	+ (“+”: MIC (μg/mL): 64 ≧ MIC > 16)
CCCCCCCCCCCCC(N)C(=O)NC1C(CO)OCC(Nc2c(Cl)cc(C(F)(F)F)cc2[N+](=O)[O-])C1O (centres unmarked) [Compound 198]	+ (“+”: MIC (μg/mL): 64 ≧ MIC > 16)	+ (“+”: MIC (μg/mL): 64 ≧ MIC > 16)	+ (“+”: MIC (μg/mL): 64 ≧ MIC > 16)	+ (“+”: MIC (μg/mL): 64 ≧ MIC > 16)	+ (“+”: MIC (μg/mL): 64 ≧ MIC > 16)
Nc1cc(C(F)(F)F)cc(Cl)c1NC1COC(CO)C(NC(=O)c2ccc(-c3ccccc3)cc2)C1O (centres unmarked) [Compound 200]	− (“−”: MIC (μg/mL): MIC > 64)	+ (“+”: MIC (μg/mL): 64 ≧ MIC > 16)	− (“−”: MIC (μg/mL): MIC > 64)	− (“−”: MIC (μg/mL): MIC > 64)	− (“−”: MIC (μg/mL): MIC > 64)
Nc1cc(C(F)(F)F)cc(Cl)c1NC1COC(CO)C(NC(=O)C(N)Cc2ccc(-c3ccccc3)cc2)C1O (centres unmarked) [Compound 202]	+ (“+”: MIC (μg/mL): 64 ≧ MIC > 16)	+ (“+”: MIC (μg/mL): 64 ≧ MIC > 16)	− (“−”: MIC (μg/mL): MIC > 64)	− (“−”: MIC (μg/mL): MIC > 64)	+ (“+”: MIC (μg/mL): 64 ≧ MIC > 16)
CCCCCCCCCCCCC(N)C(=O)NC1C(CO)OCC(Nc2ccc(C(F)(F)F)cc2N)C1O (centres unmarked) [Compound 207]	+ (“+”: MIC (μg/mL): 64 ≧ MIC > 16)	+ (“+”: MIC (μg/mL): 64 ≧ MIC > 16)	+ (“+”: MIC (μg/mL): 64 ≧ MIC > 16)	+ (“+”: MIC (μg/mL): 64 ≧ MIC > 16)	+ (“+”: MIC (μg/mL): 64 ≧ MIC > 16)
